Reference: PubChem BioAssay (NCI)
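Growth conditions: 96-well plates. Treatment: test compound, 48 hours, 5 concentrations. Analysis: linear interpolation between bracketing concentrations; unreached endpoints set to highest concentration. TGI: total growth inhibition.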

Key:
Assay in all cases: NCI-60 cell line screen, 48 h
HS 578T breast = system: HS 578T breast
OVCAR-4 ovarian = system: OVCAR-4 ovarian
COLO 205 colon = system: COLO 205 colon
NCI-H226 lung = system: NCI-H226 lung
UO-31 renal = system: UO-31 renal
IGROV1 ovarian = system: IGROV1 ovarian
NCI/ADR-RES ovarian = system: NCI/ADR-RES ovarian
RXF 393 renal = system: RXF 393 renal
CCRF-CEM leukemia = system: CCRF-CEM leukemia
CAKI-1 renal = system: CAKI-1 renal
UACC-62 melanoma = system: UACC-62 melanoma
OVCAR-8 ovarian = system: OVCAR-8 ovarian
MCF7 breast = system: MCF7 breast
K-562 leukemia = system: K-562 leukemia
SW-620 colon = system: SW-620 colon
SK-OV-3 ovarian = system: SK-OV-3 ovarian
SR leukemia = system: SR leukemia
ACHN renal = system: ACHN renal
SF-539 CNS = system: SF-539 CNS
PC-3 prostate = system: PC-3 prostate
MDA-MB-435 = system: MDA-MB-435
T-47D breast = system: T-47D breast
U251 CNS = system: U251 CNS
786-0 renal = system: 786-0 renal
MDA-MB-231 breast = system: MDA-MB-231 breast
MOLT-4 leukemia = system: MOLT-4 leukemia
MDA-N = system: MDA-N
TK-10 renal = system: TK-10 renal
HL-60(TB) leukemia = system: HL-60(TB) leukemia
SN12C renal = system: SN12C renal
A549 NSCLC = system: A549 NSCLC
OVCAR-5 ovarian = system: OVCAR-5 ovarian
A498 renal = system: A498 renal
LOX IMVI melanoma = system: LOX IMVI melanoma
MALME-3M melanoma = system: MALME-3M melanoma
KM12 colon = system: KM12 colon
UACC-257 melanoma = system: UACC-257 melanoma
EKVX NSCLC = system: EKVX NSCLC
HCT-15 colon = system: HCT-15 colon
SNB-75 CNS = system: SNB-75 CNS
OVCAR-3 ovarian = system: OVCAR-3 ovarian
HCT-116 colon = system: HCT-116 colon
NCI-H23 lung = system: NCI-H23 lung
HOP-62 NSCLC = system: HOP-62 NSCLC
SNB-19 CNS = system: SNB-19 CNS
M14 melanoma = system: M14 melanoma
DU-145 prostate = system: DU-145 prostate
SK-MEL-5 melanoma = system: SK-MEL-5 melanoma
SK-MEL-2 melanoma = system: SK-MEL-2 melanoma
HT29 colon = system: HT29 colon
RPMI-8226 leukemia = system: RPMI-8226 leukemia
NCI-H460 lung = system: NCI-H460 lung
HCC-2998 colon = system: HCC-2998 colon
BT-549 breast = system: BT-549 breast
SF-295 CNS = system: SF-295 CNS
HOP-92 NSCLC = system: HOP-92 NSCLC
SK-MEL-28 melanoma = system: SK-MEL-28 melanoma
SF-268 CNS = system: SF-268 CNS
NCI-H522 lung = system: NCI-H522 lung

`O=C(O)CCC(NC(=O)c1ccc(Nc2cnc3ccc(C(F)(F)F)cc3n2)cc1)C(=O)O` (stereo unspecified) was tested, and the TGI (HS 578T breast) was > 100 µM, the TGI (OVCAR-4 ovarian) was > 100 µM and the TGI (COLO 205 colon) was > 100 µM. The TGI (NCI-H226 lung) was > 100 µM, the TGI (UO-31 renal) was > 100 µM and the TGI (IGROV1 ovarian) was > 100 µM. For the same compound, the TGI (NCI/ADR-RES ovarian) was > 100 µM, the TGI (RXF 393 renal) was > 100 µM and the TGI (CCRF-CEM leukemia) was > 100 µM. For the same compound, the TGI (CAKI-1 renal) was > 100 µM, the TGI (UACC-62 melanoma) was > 100 µM and the TGI (OVCAR-8 ovarian) was > 100 µM. For the same compound, the TGI (MCF7 breast) was > 100 µM, the TGI (K-562 leukemia) was > 100 µM and the TGI (SW-620 colon) was > 100 µM. The TGI (SK-OV-3 ovarian) was > 100 µM, the TGI (SR leukemia) was > 100 µM and the TGI (ACHN renal) was > 100 µM. For the same compound, the TGI (SF-539 CNS) was > 100 µM, the TGI (PC-3 prostate) was > 100 µM and the TGI (MDA-MB-435) was > 100 µM. The TGI (T-47D breast) was > 100 µM, the TGI (U251 CNS) was > 100 µM and the TGI (786-0 renal) was > 100 µM. The TGI (MDA-MB-231 breast) was > 100 µM, the TGI (MOLT-4 leukemia) was > 100 µM and the TGI (MDA-N) was > 100 µM. For the same compound, the TGI (TK-10 renal) was > 100 µM, the TGI (HL-60(TB) leukemia) was > 100 µM and the TGI (SN12C renal) was > 100 µM. The TGI (A549 NSCLC) was > 100 µM, the TGI (OVCAR-5 ovarian) was > 100 µM and the TGI (A498 renal) was > 100 µM. For the same compound, the TGI (LOX IMVI melanoma) was > 100 µM, the TGI (MALME-3M melanoma) was > 100 µM and the TGI (KM12 colon) was > 100 µM. For the same compound, the TGI (UACC-257 melanoma) was > 100 µM, the TGI (EKVX NSCLC) was > 100 µM and the TGI (HCT-15 colon) was > 100 µM. The TGI (SNB-75 CNS) was > 100 µM, the TGI (OVCAR-3 ovarian) was > 100 µM and the TGI (HCT-116 colon) was > 100 µM. For the same compound, the TGI (NCI-H23 lung) was > 100 µM, the TGI (HOP-62 NSCLC) was > 100 µM and the TGI (SNB-19 CNS) was > 100 µM. The TGI (M14 melanoma) was > 100 µM, the TGI (DU-145 prostate) was > 100 µM and the TGI (SK-MEL-5 melanoma) was > 100 µM. The TGI (SK-MEL-2 melanoma) was > 100 µM, the TGI (HT29 colon) was > 100 µM and the TGI (RPMI-8226 leukemia) was > 100 µM. For the same compound, the TGI (NCI-H460 lung) was > 100 µM, the TGI (HCC-2998 colon) was > 100 µM and the TGI (BT-549 breast) was > 100 µM. The TGI (SF-295 CNS) was > 100 µM, the TGI (HOP-92 NSCLC) was > 100 µM and the TGI (SK-MEL-28 melanoma) was > 100 µM. For the same compound, the TGI (SF-268 CNS) was > 100 µM.
`O=C(N/N=C/c1ccc([N+](=O)[O-])cc1)c1cccc2nc3ccccc3nc12` was tested, and the TGI (HS 578T breast) was 73.6 µM, the TGI (OVCAR-4 ovarian) was > 100 µM and the TGI (COLO 205 colon) was > 100 µM. For the same compound, the TGI (NCI-H226 lung) was > 100 µM, the TGI (UO-31 renal) was > 100 µM and the TGI (IGROV1 ovarian) was > 100 µM. The TGI (NCI/ADR-RES ovarian) was > 100 µM, the TGI (RXF 393 renal) was > 80.7 µM and the TGI (CCRF-CEM leukemia) was > 100 µM. For the same compound, the TGI (CAKI-1 renal) was > 100 µM, the TGI (UACC-62 melanoma) was > 100 µM and the TGI (OVCAR-8 ovarian) was > 100 µM. The TGI (MCF7 breast) was > 100 µM, the TGI (K-562 leukemia) was > 100 µM and the TGI (SW-620 colon) was > 100 µM. For the same compound, the TGI (SK-OV-3 ovarian) was > 100 µM, the TGI (SR leukemia) was > 64.7 µM and the TGI (ACHN renal) was > 73.8 µM. The TGI (SF-539 CNS) was > 65.6 µM, the TGI (PC-3 prostate) was > 100 µM and the TGI (MDA-MB-435) was > 100 µM. For the same compound, the TGI (T-47D breast) was > 100 µM, the TGI (U251 CNS) was > 100 µM and the TGI (786-0 renal) was > 100 µM. For the same compound, the TGI (MDA-MB-231 breast) was > 100 µM, the TGI (NCI-H522 lung) was > 100 µM and the TGI (MOLT-4 leukemia) was > 100 µM. For the same compound, the TGI (MDA-N) was > 100 µM, the TGI (TK-10 renal) was > 69.2 µM and the TGI (HL-60(TB) leukemia) was > 100 µM. For the same compound, the TGI (SN12C renal) was > 100 µM, the TGI (A549 NSCLC) was > 100 µM and the TGI (OVCAR-5 ovarian) was > 100 µM. The TGI (A498 renal) was > 100 µM, the TGI (LOX IMVI melanoma) was > 100 µM and the TGI (MALME-3M melanoma) was > 100 µM. The TGI (KM12 colon) was > 100 µM, the TGI (UACC-257 melanoma) was > 100 µM and the TGI (EKVX NSCLC) was > 100 µM. The TGI (HCT-15 colon) was > 100 µM, the TGI (SNB-75 CNS) was > 100 µM and the TGI (OVCAR-3 ovarian) was > 100 µM. For the same compound, the TGI (HCT-116 colon) was > 100 µM, the TGI (NCI-H23 lung) was > 100 µM and the TGI (HOP-62 NSCLC) was 22.7 µM. For the same compound, the TGI (SNB-19 CNS) was > 100 µM, the TGI (M14 melanoma) was > 100 µM and the TGI (DU-145 prostate) was > 100 µM. The TGI (SK-MEL-5 melanoma) was > 100 µM, the TGI (SK-MEL-2 melanoma) was > 100 µM and the TGI (HT29 colon) was > 100 µM. For the same compound, the TGI (RPMI-8226 leukemia) was > 100 µM, the TGI (NCI-H460 lung) was > 64.4 µM and the TGI (BT-549 breast) was > 100 µM. For the same compound, the TGI (SF-295 CNS) was > 100 µM, the TGI (HOP-92 NSCLC) was > 87.3 µM and the TGI (SK-MEL-28 melanoma) was > 100 µM. The TGI (SF-268 CNS) was > 100 µM.
